Results from the supplement of paper PMC13380429.

What was measured:
Conditions in all cases: 72 h
[1] = system: Caco-2; experiment: relative viability EC50 (midpoint between 100% and the lowest measured viability); higher = less toxic
[2] = system: Vero E6; experiment: as above
[3] = system: HepG2; experiment: as above
[4] = system: Calu-3; experiment: as above
[5] = system: U2OS; experiment: as above
[6] = system: Caco-2; experiment: drug sensitivity score (DSS) for viability; higher = more toxic; extreme values may be limits of the assay
[7] = system: Vero E6; experiment: as above
[8] = system: HepG2; experiment: as above
[9] = system: Calu-3; experiment: as above
[10] = system: U2OS; experiment: as above
[11] = system: Caco-2; experiment: cell viability relative to DMSO; higher = less toxic
[12] = system: Vero E6; experiment: as above
[13] = system: HepG2; experiment: as above
[14] = system: Calu-3; experiment: as above
[15] = system: U2OS; experiment: as above

CN1[C@@H]2CC[C@H]1C[C@@H](OC(=O)c1cc(Cl)cc(Cl)c1)C2 [bemesetron]
relative viability EC50 [1]: > 10 µM | relative viability EC50 [2]: > 10 µM | relative viability EC50 [3]: > 10 µM | relative viability EC50 [4]: > 10 µM | relative viability EC50 [5]: > 10 µM | drug sensitivity score [6]: 1 | drug sensitivity score [7]: 0 | drug sensitivity score [8]: 0 | drug sensitivity score [9]: 0 | drug sensitivity score [10]: 0 | cell viability ([11]; 1 nM): 104% | cell viability ([11]; 10 nM): 97.8% | cell viability ([11]; 100 nM): 103% | cell viability ([11]; 1000 nM): 94.9% | cell viability ([11]; 10000 nM): 82.2% | cell viability ([12]; 1 nM): 98.2% | cell viability ([12]; 10 nM): 103% | cell viability ([12]; 100 nM): 95.8% | cell viability ([12]; 1000 nM): 99.5% | cell viability ([12]; 10000 nM): 104% | cell viability ([13]; 1 nM): 98.7% | cell viability ([13]; 10 nM): 101% | cell viability ([13]; 100 nM): 91.3% | cell viability ([13]; 1000 nM): 107% | cell viability ([13]; 10000 nM): 106% | cell viability ([14]; 1 nM): 86.5% | cell viability ([14]; 10 nM): 87.7% | cell viability ([14]; 100 nM): 94.5% | cell viability ([14]; 1000 nM): 94% | cell viability ([14]; 10000 nM): 95% | cell viability ([15]; 1 nM): 98.7% | cell viability ([15]; 10 nM): 96.7% | cell viability ([15]; 100 nM): 101% | cell viability ([15]; 1000 nM): 98.7% | cell viability ([15]; 10000 nM): 99.7%

O=C(/C=C/c1ccc2ccc(C(F)(F)F)cc2n1)c1ccncc1 [PFK-158]
relative viability EC50 [1]: > 10 µM | relative viability EC50 [2]: > 10 µM | relative viability EC50 [3]: 3.37 µM | relative viability EC50 [4]: > 10 µM | relative viability EC50 [5]: 3.22 µM | drug sensitivity score [6]: 0 | drug sensitivity score [7]: 0.5 | drug sensitivity score [8]: 2.8 | drug sensitivity score [9]: 0 | drug sensitivity score [10]: 5.5 | cell viability ([11]; 1 nM): 95.9% | cell viability ([11]; 10 nM): 92.8% | cell viability ([11]; 100 nM): 102% | cell viability ([11]; 1000 nM): 92.3% | cell viability ([11]; 10000 nM): 88.2% | cell viability ([12]; 1 nM): 105% | cell viability ([12]; 10 nM): 86.7% | cell viability ([12]; 100 nM): 110% | cell viability ([12]; 1000 nM): 92.1% | cell viability ([12]; 10000 nM): 87.3% | cell viability ([13]; 1 nM): 97.1% | cell viability ([13]; 10 nM): 84.6% | cell viability ([13]; 100 nM): 96.3% | cell viability ([13]; 1000 nM): 102% | cell viability ([13]; 10000 nM): 44.9% | cell viability ([14]; 1 nM): 92.1% | cell viability ([14]; 10 nM): 96.3% | cell viability ([14]; 100 nM): 90.5% | cell viability ([14]; 1000 nM): 104% | cell viability ([14]; 10000 nM): 89.9% | cell viability ([15]; 1 nM): 94.4% | cell viability ([15]; 10 nM): 100% | cell viability ([15]; 100 nM): 93.9% | cell viability ([15]; 1000 nM): 101% | cell viability ([15]; 10000 nM): 0%

CCNC1(C(N)=O)CCN(c2ncnc3c2nc(-c2ccccc2Cl)n3-c2ccc(Cl)cc2)CC1 [CP-945,598]
relative viability EC50 [1]: > 10 µM | relative viability EC50 [2]: > 10 µM | relative viability EC50 [3]: > 10 µM | relative viability EC50 [4]: > 10 µM | relative viability EC50 [5]: > 10 µM | drug sensitivity score [6]: 3.1 | drug sensitivity score [7]: 0 | drug sensitivity score [8]: 0.4 | drug sensitivity score [9]: 0 | drug sensitivity score [10]: 0 | cell viability ([11]; 1 nM): 96.2% | cell viability ([11]; 10 nM): 98.9% | cell viability ([11]; 100 nM): 88.3% | cell viability ([11]; 1000 nM): 80.7% | cell viability ([11]; 10000 nM): 89.3% | cell viability ([12]; 1 nM): 101% | cell viability ([12]; 10 nM): 103% | cell viability ([12]; 100 nM): 98.6% | cell viability ([12]; 1000 nM): 101% | cell viability ([12]; 10000 nM): 104% | cell viability ([13]; 1 nM): 103% | cell viability ([13]; 10 nM): 95.6% | cell viability ([13]; 100 nM): 100% | cell viability ([13]; 1000 nM): 95.3% | cell viability ([13]; 10000 nM): 86.6% | cell viability ([14]; 1 nM): 109% | cell viability ([14]; 10 nM): 102% | cell viability ([14]; 100 nM): 97.5% | cell viability ([14]; 1000 nM): 108% | cell viability ([14]; 10000 nM): 104% | cell viability ([15]; 1 nM): 104% | cell viability ([15]; 10 nM): 104% | cell viability ([15]; 100 nM): 101% | cell viability ([15]; 1000 nM): 98.1% | cell viability ([15]; 10000 nM): 95.7%

CC(=O)OCC(=O)[C@@]1(O)CC[C@H]2[C@@H]3CCC4=CC(=O)C=C[C@]4(C)[C@H]3[C@@H](O)C[C@@]21C [prednisolone-acetate]
relative viability EC50 [1]: > 10 µM | relative viability EC50 [2]: > 10 µM | relative viability EC50 [3]: > 10 µM | relative viability EC50 [4]: > 10 µM | relative viability EC50 [5]: > 10 µM | drug sensitivity score [6]: 0.1 | drug sensitivity score [7]: 0 | drug sensitivity score [8]: 0 | drug sensitivity score [9]: 0 | drug sensitivity score [10]: 0 | cell viability ([11]; 1 nM): 110% | cell viability ([11]; 10 nM): 108% | cell viability ([11]; 100 nM): 93.3% | cell viability ([11]; 1000 nM): 106% | cell viability ([11]; 10000 nM): 85.8% | cell viability ([12]; 1 nM): 99.5% | cell viability ([12]; 10 nM): 106% | cell viability ([12]; 100 nM): 104% | cell viability ([12]; 1000 nM): 102% | cell viability ([12]; 10000 nM): 94.4% | cell viability ([13]; 1 nM): 107% | cell viability ([13]; 10 nM): 106% | cell viability ([13]; 100 nM): 93.1% | cell viability ([13]; 1000 nM): 90.9% | cell viability ([13]; 10000 nM): 114% | cell viability ([14]; 1 nM): 99.5% | cell viability ([14]; 10 nM): 92.3% | cell viability ([14]; 100 nM): 82.6% | cell viability ([14]; 1000 nM): 87% | cell viability ([14]; 10000 nM): 98.1% | cell viability ([15]; 1 nM): 110% | cell viability ([15]; 10 nM): 106% | cell viability ([15]; 100 nM): 100% | cell viability ([15]; 1000 nM): 101% | cell viability ([15]; 10000 nM): 97.8%

Cc1ccccc1CN1C(=O)C2=C(CCN(Cc3ccccc3)C2)N2CCN=C12 [ONC201]
relative viability EC50 [1]: 3.72 µM | relative viability EC50 [2]: 3.35 µM | relative viability EC50 [3]: 2.39 µM | relative viability EC50 [4]: > 10 µM | relative viability EC50 [5]: 3.64 µM | drug sensitivity score [6]: 2.5 | drug sensitivity score [7]: 3.5 | drug sensitivity score [8]: 6.3 | drug sensitivity score [9]: 0.6 | drug sensitivity score [10]: 2.8 | cell viability ([11]; 1 nM): 108% | cell viability ([11]; 10 nM): 106% | cell viability ([11]; 100 nM): 93.4% | cell viability ([11]; 1000 nM): 107% | cell viability ([11]; 10000 nM): 44.1% | cell viability ([12]; 1 nM): 110% | cell viability ([12]; 10 nM): 101% | cell viability ([12]; 100 nM): 103% | cell viability ([12]; 1000 nM): 102% | cell viability ([12]; 10000 nM): 32.2% | cell viability ([13]; 1 nM): 108% | cell viability ([13]; 10 nM): 93.7% | cell viability ([13]; 100 nM): 104% | cell viability ([13]; 1000 nM): 91.6% | cell viability ([13]; 10000 nM): 10.3% | cell viability ([14]; 1 nM): 103% | cell viability ([14]; 10 nM): 103% | cell viability ([14]; 100 nM): 102% | cell viability ([14]; 1000 nM): 106% | cell viability ([14]; 10000 nM): 75.7% | cell viability ([15]; 1 nM): 100% | cell viability ([15]; 10 nM): 102% | cell viability ([15]; 100 nM): 95.4% | cell viability ([15]; 1000 nM): 106% | cell viability ([15]; 10000 nM): 41.1%

C=C[C@@H]1C[C@]1(NC(=O)[C@@H]1C[C@@H]2CN1C(=O)[C@H](C(C)(C)C)NC(=O)O[C@@H]1C[C@H]1CCCCCc1nc3ccc(OC)cc3nc1O2)C(=O)NS(=O)(=O)C1CC1 [grazoprevir]
relative viability EC50 [1]: > 10 µM | relative viability EC50 [2]: > 10 µM | relative viability EC50 [3]: > 10 µM | relative viability EC50 [4]: > 10 µM | relative viability EC50 [5]: > 10 µM | drug sensitivity score [6]: 1.2 | drug sensitivity score [7]: 0 | drug sensitivity score [8]: 0 | drug sensitivity score [9]: 0 | drug sensitivity score [10]: 0 | cell viability ([11]; 1 nM): 101% | cell viability ([11]; 10 nM): 98.5% | cell viability ([11]; 100 nM): 105% | cell viability ([11]; 1000 nM): 93.9% | cell viability ([11]; 10000 nM): 80.8% | cell viability ([12]; 1 nM): 96.3% | cell viability ([12]; 10 nM): 98.3% | cell viability ([12]; 100 nM): 97.1% | cell viability ([12]; 1000 nM): 95.3% | cell viability ([12]; 10000 nM): 103% | cell viability ([13]; 1 nM): 106% | cell viability ([13]; 10 nM): 92.5% | cell viability ([13]; 100 nM): 99.6% | cell viability ([13]; 1000 nM): 103% | cell viability ([13]; 10000 nM): 106% | cell viability ([14]; 1 nM): 103% | cell viability ([14]; 10 nM): 107% | cell viability ([14]; 100 nM): 105% | cell viability ([14]; 1000 nM): 94.7% | cell viability ([14]; 10000 nM): 103% | cell viability ([15]; 1 nM): 93% | cell viability ([15]; 10 nM): 100% | cell viability ([15]; 100 nM): 96% | cell viability ([15]; 1000 nM): 91.6% | cell viability ([15]; 10000 nM): 90.4%

Cc1cc(NC(=O)Nc2ccc(N(C)C)cc2)c2cc(F)cc(F)c2n1
relative viability EC50 [1]: > 10 µM | relative viability EC50 [2]: > 10 µM | relative viability EC50 [3]: > 10 µM | relative viability EC50 [4]: > 10 µM | relative viability EC50 [5]: > 10 µM | drug sensitivity score [6]: 0.1 | drug sensitivity score [7]: 0 | drug sensitivity score [8]: 0.8 | drug sensitivity score [9]: 0 | drug sensitivity score [10]: 0 | cell viability ([11]; 1 nM): 100% | cell viability ([11]; 10 nM): 103% | cell viability ([11]; 100 nM): 99.8% | cell viability ([11]; 1000 nM): 89.5% | cell viability ([11]; 10000 nM): 91.6% | cell viability ([12]; 1 nM): 101% | cell viability ([12]; 10 nM): 95.8% | cell viability ([12]; 100 nM): 100% | cell viability ([12]; 1000 nM): 97.9% | cell viability ([12]; 10000 nM): 100% | cell viability ([13]; 1 nM): 103% | cell viability ([13]; 10 nM): 93.7% | cell viability ([13]; 100 nM): 96.4% | cell viability ([13]; 1000 nM): 93.1% | cell viability ([13]; 10000 nM): 80.1% | cell viability ([14]; 1 nM): 95.2% | cell viability ([14]; 10 nM): 98.8% | cell viability ([14]; 100 nM): 101% | cell viability ([14]; 1000 nM): 105% | cell viability ([14]; 10000 nM): 94.7% | cell viability ([15]; 1 nM): 98.4% | cell viability ([15]; 10 nM): 104% | cell viability ([15]; 100 nM): 99.8% | cell viability ([15]; 1000 nM): 103% | cell viability ([15]; 10000 nM): 91.9%
